Results reported in patent US20120237524A1, “MET INHIBITORS FOR ENHANCING RADIOTHERAPY EFFICACY” (priority 2011, published 2012).

Columns and labels:
ATM kinase = biological target: T1, ATM kinase (Homo sapiens, UniProt Q13315); test: ATM kinase inhibition in irradiated cells, western blot time course; assay type: cell-based; settings: MDA-MB-435S or MDA-MB-231, 10 μM, time course after irradiation
T1 construct: endogenous in cells; host or cells: MDA-MB-435S, MDA-MB-231 (ATCC)
Protocol: Met protein expression, Chk2 phosphorylation (p-Chk2) and p65/RelA nuclear translocation in MDA-MB-435S treated with the ATM kinase inhibitor CGK733, and extracted at the indicated time-points after irradiation. ctrl, non-irradiated cells at time zero.
Cell lines (A549, MDA-MB-231, LoVo, MDAMB-4355, U-87MG, U-251, PC3, SF295, DLD1, SK-N-SH) were from ATCC. For ATM kinase inhibition, cells were pre-treated for 4 h before irradiation and then kept in the presence of CGK733 (10 μM in DMSO). siRNAs targeting RELA (ON-TARGET plus SMART pool L-003533-00 Human RELA, NM 021975, Dharmacon, 100 nM), or control siRNAs (ON-TARGET plus SMART pool, siCONTROL Non Targeting siRNA, Dharmacon) were transiently transfected.
Protein expression was investigated in irradiated confluent, serum-starved cells. For fractionation in cytoplasmic and nuclear portions, cells were washed and incubated on ice for 10 min in “buffer A” (10 mM HEPES pH 7.9, 10 mM KCl, 0.1 mM EDTA, 0.5% NP-40, 1 mM dithiothreitol, 1 mM phenylmethylsulfonyl fluoride and a cocktail of protease inhibitors). Supernatants, containing the cytoplasmic extracts, were separated by centrifugation. Pellets were resuspended in “buffer B” (20 mM HEPES pH 7.9, 400 mM KCl, 1 mM EDTA, 1 mM dithiothreitol, 10% glycerol, 1 mM phenylmethylsulfonyl fluoride and a cocktail of protease inhibitors) and incubated at 4° C. for 1 h with vigorous mixing. The resulting nuclear lysates were clarified by high-speed centrifugation. Equal amount of proteins were resolved by SDS-PAGE and analysed by western blot with the following primary antibodies: mouse anti-human Met (DL21 disclosed in Prat et al., Int. J. Cancer 49, 323-328 (1991)), mouse anti-p65/RelA and mouse anti-HIF-1α (BD Biosciences), rabbit anti-phospho-Ser276 and rabbit anticaspase-3 (Cell Signaling), rabbit anti-phospho-Chk2 (T68, R&D Systems). Goat anti-actin (C-11; Santa Cruz Biotechnology) and mouse anti-lamin B (Calbiochem) were used for control of equal cytoplasmic or nuclear protein loading, respectively. […] Densitometric analysis was performed with Quantity One 1-D (Bio-Rad Laboratories). […]

Met = biological target: T2, Met (Homo sapiens, UniProt P08581); test: Met phosphorylation (immunoprecipitation, anti-phospho-Tyr western blot) in MDA-MB-231; assay type: cell-based; settings: MDA-MB-231, HGF 50 ng/ml (non-saturating)
T2 construct: Met phosphorylation in MDA-MB-231 treated with HGF (50 nM) and/or IR (10 Gy); endogenous in cells; host or cells: MDA-MB-231 (ATCC)
T2 sequence (P08581 25-1390): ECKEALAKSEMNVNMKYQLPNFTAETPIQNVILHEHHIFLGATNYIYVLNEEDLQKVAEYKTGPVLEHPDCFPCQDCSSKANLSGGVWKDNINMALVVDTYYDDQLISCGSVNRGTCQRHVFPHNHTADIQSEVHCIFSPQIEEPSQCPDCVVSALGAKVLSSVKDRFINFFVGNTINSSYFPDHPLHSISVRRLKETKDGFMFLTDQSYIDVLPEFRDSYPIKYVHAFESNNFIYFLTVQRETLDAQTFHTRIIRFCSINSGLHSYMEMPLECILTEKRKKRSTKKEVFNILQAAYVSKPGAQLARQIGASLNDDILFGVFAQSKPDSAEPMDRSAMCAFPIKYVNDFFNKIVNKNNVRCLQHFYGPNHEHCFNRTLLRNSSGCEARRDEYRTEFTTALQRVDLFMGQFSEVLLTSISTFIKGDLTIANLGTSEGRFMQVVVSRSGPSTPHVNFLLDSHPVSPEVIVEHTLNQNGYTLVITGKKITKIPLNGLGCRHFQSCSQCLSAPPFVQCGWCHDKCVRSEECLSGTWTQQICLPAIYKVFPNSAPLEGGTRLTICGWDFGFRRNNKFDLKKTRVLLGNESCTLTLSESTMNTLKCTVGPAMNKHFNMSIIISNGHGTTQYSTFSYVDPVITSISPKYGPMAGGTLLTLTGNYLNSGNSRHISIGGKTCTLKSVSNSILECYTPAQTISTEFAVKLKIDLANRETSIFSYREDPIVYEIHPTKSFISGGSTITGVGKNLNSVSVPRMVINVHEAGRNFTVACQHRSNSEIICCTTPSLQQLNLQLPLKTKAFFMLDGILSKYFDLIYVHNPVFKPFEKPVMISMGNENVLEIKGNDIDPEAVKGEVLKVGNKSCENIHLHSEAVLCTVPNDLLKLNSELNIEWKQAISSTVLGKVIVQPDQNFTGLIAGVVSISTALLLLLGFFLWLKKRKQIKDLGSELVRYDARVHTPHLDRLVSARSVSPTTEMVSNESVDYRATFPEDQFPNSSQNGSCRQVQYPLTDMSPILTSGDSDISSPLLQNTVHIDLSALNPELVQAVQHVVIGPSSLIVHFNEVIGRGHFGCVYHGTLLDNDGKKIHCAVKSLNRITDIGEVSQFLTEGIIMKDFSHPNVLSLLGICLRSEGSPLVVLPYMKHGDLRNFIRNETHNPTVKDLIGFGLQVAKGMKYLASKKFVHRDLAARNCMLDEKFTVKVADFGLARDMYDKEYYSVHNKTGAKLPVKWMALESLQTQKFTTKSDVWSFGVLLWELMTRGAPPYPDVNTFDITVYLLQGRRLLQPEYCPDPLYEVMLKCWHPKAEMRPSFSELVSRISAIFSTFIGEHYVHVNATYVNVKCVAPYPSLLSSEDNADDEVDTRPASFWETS

MDA-MB-4355 spheroids = test: Branching morphogenesis assay; assay type: cell-based, human; settings: HGF 5 nM alone (suboptimal concentration), non-irradiated MDA-MB-4355
Protocol: a, Basement membrane invasion by irradiated MDA-MB-231 or U-251 (10 Gy; ctrl, control). Micrographs of transwell filters (10×). b, Aberrant Met-induced branching morphogenesis in irradiated MDA-MB-4355 (10 Gy; ctrl, control), cultured with or without (−) the indicated HGF concentrations. Scale bar: 100 μm.
MDA-MB-4355 spheroids were preformed by single-cell resuspension in 240 mg/ml methylcellulose (Sigma) and culture in nonadherent 96-well plates (Greiner) for 24 h. Spheroids were transferred into a matrix containing 1.3 mg/ml type I collagen from rat tail (BD Biosciences), 10% FBS, and 240 mg/ml methylcellulose. After 24 h, cells were irradiated and/or cultured in the presence of HGF for 7 days. HGF was obtained as a baculovirus recombinant protein in SF9 cells. The conditioned medium from uninfected cells was used as negative control. Images are representative of results obtained in three independent experiments.

U-251 = test: Cell viability assay with DN30 Fab, with irradiation (10 Gy); assay type: cell-based, human
Protocol: Viability of U-251 irradiated with 10 Gy and/or cultured in the presence of the Fab fragment of the DN30 anti-Met antibody, for 48 h (vehicle: non-irradiated cells). Columns: mean of triplicate analyses of three independent experiments±s.e.m. […] Columns: percentage of cells generating clones (mean of triplicate analyses of two independent experiments±s.e.m., * p<0.05, n=6, paired t-test).
10^3 cells were seeded in 96-well plates and grown for 24 h. Culture medium was replaced with medium containing 1% FBS and DN30 Fab (28 μg/ml) or the vehicle alone (PBS). After 24 h, cells were irradiated (10 Gy). Cell viability was assessed as above.

T1 sequence (Q13315 whole entry): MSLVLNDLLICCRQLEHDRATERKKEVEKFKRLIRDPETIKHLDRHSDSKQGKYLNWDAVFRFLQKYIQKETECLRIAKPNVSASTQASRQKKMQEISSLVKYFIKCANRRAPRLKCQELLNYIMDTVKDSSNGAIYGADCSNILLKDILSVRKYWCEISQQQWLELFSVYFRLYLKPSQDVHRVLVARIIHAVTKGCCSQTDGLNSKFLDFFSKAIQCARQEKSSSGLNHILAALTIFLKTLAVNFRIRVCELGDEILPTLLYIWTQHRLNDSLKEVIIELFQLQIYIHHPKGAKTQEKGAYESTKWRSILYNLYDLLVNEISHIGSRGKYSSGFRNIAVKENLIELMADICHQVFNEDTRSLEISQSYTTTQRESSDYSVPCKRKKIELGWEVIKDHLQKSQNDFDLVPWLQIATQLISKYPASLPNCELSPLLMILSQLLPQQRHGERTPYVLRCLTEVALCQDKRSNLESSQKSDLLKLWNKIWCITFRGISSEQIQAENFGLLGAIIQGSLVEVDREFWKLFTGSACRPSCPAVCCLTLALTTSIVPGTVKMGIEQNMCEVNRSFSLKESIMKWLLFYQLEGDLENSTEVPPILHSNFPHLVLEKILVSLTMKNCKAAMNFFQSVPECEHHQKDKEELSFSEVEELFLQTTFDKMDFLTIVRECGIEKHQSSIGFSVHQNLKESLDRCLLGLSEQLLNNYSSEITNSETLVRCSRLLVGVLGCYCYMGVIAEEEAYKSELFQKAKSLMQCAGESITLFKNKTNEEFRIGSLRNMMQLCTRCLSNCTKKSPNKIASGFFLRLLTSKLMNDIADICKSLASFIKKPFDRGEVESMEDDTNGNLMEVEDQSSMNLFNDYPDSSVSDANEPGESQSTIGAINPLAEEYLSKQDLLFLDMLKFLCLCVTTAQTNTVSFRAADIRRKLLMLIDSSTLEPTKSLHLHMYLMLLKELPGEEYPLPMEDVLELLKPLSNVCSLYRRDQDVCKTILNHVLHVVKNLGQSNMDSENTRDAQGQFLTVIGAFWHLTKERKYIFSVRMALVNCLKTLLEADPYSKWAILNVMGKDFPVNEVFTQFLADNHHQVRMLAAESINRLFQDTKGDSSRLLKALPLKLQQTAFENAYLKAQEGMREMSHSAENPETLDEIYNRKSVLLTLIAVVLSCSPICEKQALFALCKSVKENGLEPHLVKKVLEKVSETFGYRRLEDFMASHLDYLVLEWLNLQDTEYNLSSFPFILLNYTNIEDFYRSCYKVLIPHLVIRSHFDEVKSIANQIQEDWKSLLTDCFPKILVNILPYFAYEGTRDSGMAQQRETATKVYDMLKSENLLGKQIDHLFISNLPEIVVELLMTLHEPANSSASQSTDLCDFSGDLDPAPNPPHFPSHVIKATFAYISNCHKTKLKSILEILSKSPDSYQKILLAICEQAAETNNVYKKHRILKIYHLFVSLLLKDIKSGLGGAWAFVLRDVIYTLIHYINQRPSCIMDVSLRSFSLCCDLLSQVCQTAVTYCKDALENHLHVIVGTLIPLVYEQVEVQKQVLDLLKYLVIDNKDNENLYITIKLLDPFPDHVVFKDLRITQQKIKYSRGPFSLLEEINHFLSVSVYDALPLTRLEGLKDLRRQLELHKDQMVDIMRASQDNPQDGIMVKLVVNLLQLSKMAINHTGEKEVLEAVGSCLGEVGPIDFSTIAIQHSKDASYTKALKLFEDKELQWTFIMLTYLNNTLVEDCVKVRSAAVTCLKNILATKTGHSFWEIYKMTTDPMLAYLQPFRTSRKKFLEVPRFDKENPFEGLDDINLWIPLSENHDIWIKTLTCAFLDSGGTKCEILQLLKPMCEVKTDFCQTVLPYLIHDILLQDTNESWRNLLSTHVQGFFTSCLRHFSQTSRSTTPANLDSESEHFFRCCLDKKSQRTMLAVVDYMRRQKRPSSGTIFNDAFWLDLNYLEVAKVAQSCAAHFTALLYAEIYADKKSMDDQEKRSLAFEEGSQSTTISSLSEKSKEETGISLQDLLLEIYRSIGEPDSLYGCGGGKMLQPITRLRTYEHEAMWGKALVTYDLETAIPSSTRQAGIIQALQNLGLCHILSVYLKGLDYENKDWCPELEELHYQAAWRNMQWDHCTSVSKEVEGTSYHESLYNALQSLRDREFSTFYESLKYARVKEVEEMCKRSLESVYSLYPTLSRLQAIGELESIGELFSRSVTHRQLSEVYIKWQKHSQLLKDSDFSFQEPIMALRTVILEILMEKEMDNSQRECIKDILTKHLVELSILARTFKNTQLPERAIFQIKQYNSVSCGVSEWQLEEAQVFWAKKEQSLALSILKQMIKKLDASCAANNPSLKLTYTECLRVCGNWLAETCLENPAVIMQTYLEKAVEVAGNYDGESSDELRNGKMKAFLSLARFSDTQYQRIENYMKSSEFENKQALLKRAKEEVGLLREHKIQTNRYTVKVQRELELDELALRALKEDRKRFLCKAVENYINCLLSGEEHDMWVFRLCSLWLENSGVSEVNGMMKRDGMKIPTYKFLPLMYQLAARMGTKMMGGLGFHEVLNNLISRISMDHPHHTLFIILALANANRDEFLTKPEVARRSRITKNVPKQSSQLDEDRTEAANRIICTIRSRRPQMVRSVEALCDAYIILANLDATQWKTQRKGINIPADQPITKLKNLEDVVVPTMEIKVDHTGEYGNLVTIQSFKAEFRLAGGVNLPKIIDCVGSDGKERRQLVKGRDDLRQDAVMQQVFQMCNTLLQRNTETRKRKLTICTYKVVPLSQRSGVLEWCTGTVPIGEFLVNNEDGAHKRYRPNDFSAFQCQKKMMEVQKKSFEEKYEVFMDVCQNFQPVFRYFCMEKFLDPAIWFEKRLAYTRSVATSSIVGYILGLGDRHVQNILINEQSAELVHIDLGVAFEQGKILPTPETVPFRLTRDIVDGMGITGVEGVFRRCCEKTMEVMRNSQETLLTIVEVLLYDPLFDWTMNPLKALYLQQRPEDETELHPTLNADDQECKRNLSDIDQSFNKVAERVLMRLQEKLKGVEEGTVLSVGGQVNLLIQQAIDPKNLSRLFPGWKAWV

In the case of O=C(NC(NC(=S)Nc1ccc(F)c([N+](=O)[O-])c1)C(Cl)(Cl)Cl)C(c1ccccc1)c1ccccc1 (stereo not shown) [CGK733], the “IR-induced Met protein overexpression” value (ATM kinase) is reported as “prevented”, the “IR-induced p65/RelA nuclear translocation” value (ATM kinase) is reported as “prevented” and the “IR-induced phosphorylation of the specific ATM substrate Chk2” value (ATM kinase) is reported as “prevented”.

In the case of “HGF: Hepatocyte Growth Factor, Met ligand, obtained as a baculovirus recombinant protein in SF9 cells”, the “time to peak of Met phosphorylation” value (Met) is reported as 30 min and the “induction of branching morphogenesis” value (MDA-MB-4355 spheroids) is reported as “incapable of inducing branching morphogenesis”.

B1: Fab fragment of the DN30 anti-Met antibody: Fab fragment obtained through DN30 papain digestion and affinity purification; induces MET down-regulation (antibody)
heavy: QVQLQQPGTELVKPGASVKLSCKASGYTFTSYWIHWVKQRPGQGLEWIGEINPSSGRTNYNEKFKNKVTVTVDKSSTTAYMQLSNLTSEDSAVYYCASRGYWGQGTTLTVSSAKTTAPSVYPLAPVCGNTTGSSVTLGCLVKGYFPEPVTLTWNSGSLSSGVHTFPAVLQSDLYTLSSSVTVTSSTWPSQSITCNVAHPASSTKVDKKIEPRGPTIKPCPPCKCPAPNLLGGPSVFIFPPKIKDVLMISLSPIVTCVVVDVSEDDPDVQISWFVNNVEVHTAQTQTHREDYNSTLRVVSALPIQHQDWMSGKEFKCKVNNKDLPAPIERTISKPKGSVRAPQVYVLPPPEEEMTKKQVTLTCMVTDFMPEDIYVEWTNNGKTELNYKNTEPVLDSDGSYFMYSKLRVEKKNWVERNSYSCSVVHEGLHNHHTTKSFSRTPGK
light: DIVLTQSPASLAVSLGQRATISCKASQSVDYDGGSYMSWFQQRPGQPPKLLISAASNLESGIPARFSGSGSGTDFTLNIHPVEEEDVATYYCQQSYEDPLTFGAGTKLELKRADAAPTVSIFPPSSEQLTSGGASVVCFLNNFYPKDINVKWKIDGSERQNGVLNSWTDQDSKDSTYSMSSTLTLTKDEYERHNSYTCEATHKTSTSPIVKSFNRNEC
In the case of B1, the “Viability of U-251 (combination vs single treatments)” value (U-251; U-251 irradiated with 10 Gy and cultured with DN30 Fab for 48 h, p<0.05, n=9) is reported as “viability significantly reduced with respect to either Fab-DN30 or 10 Gy alone” and the cell viability decrease (U-251; irradiated cells kept in the presence of DN30 Fab (28 μg/ml), 10 Gy) is reported as “up to 75%”.
